Experimental data as given in PubChem BioAssay (NCI).
“And” between values parts separate entries of the source, which are not always exact repeats. Equal values may be shown once.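 Tested at 5 concentrations; 48 h exposure; 96-well plates; endpoints linearly interpolated, else capped at highest concentration. The concentration for 50% growth inhibition is given as GI50. At the TGI there is no net growth.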

Experiments:
Assay in all cases: NCI anticancer screen, dose series, 48 h
[1] = tested on: EKVX NSCLC
[2] = tested on: IGROV1 ovarian
[3] = tested on: M14 melanoma
[4] = tested on: MCF7 breast
[5] = tested on: MDA-MB-435
[6] = tested on: NCI-H23 lung
[7] = tested on: NCI-H522 lung
[8] = tested on: OVCAR-3 ovarian
[9] = tested on: SK-MEL-5 melanoma
[10] = tested on: SW-620 colon

SMILES | GI50 [1] | TGI [1] | GI50 [2] | TGI [2] | GI50 [3] | TGI [3] | GI50 [4] | TGI [4] | GI50 [5] | TGI [5] | GI50 [6] | TGI [6] | GI50 [7] | TGI [7] | GI50 [8] | TGI [8] | TGI [9] | GI50 [10] | TGI [10] | GI50 [9]
COc1ccc(S(=O)(=O)N2CC(C)(C)CN(S(=O)(=O)c3ccc(OC)cc3)C2C(=O)NO)cc1 | 12300 nM | > 20000 nM | > 20000 nM | > 20000 nM | > 20000 nM | > 20000 nM | > 20000 nM | > 20000 nM | > 20000 nM | > 20000 nM | > 20000 nM | > 20000 nM | > 20000 nM | > 20000 nM | 19800 nM | > 20000 nM | > 7630 nM | > 20000 nM | > 20000 nM | 
COc1ccc(C(=O)/C=C/c2ccc(C)cc2)cc1OC | 18400 nM | 42900 nM | 12300 nM | 58600 nM | 13700 nM | 26500 nM | 3090 nM | 15100 nM | 15500 nM | 32000 nM | 10400 nM | 22800 nM | 11100 nM | 26400 nM | 2550 nM | 12700 nM | 25000 nM | 10200 nM | 21800 nM | 12500 nM
CC[N+](CC)=c1sc2c(s1)C(c1ccc(Cl)cc1)Oc1ccc(Cl)cc1-2 (centres undefined) | 1960 nM | 9530 nM | 1600 nM | 10700 nM | 1860 nM | 4000 nM | 1540 nM | 4730 nM | 2040 nM | 4660 nM | 1070 nM | 6790 nM | 670 nM | 2890 nM | 1910 nM | 3950 nM | 2530 nM | 1080 nM | 2720 nM | 1220 nM
CCC[CH2][Sn]([CH2]CCC)([CH2]CCC)[O]c1ccc(Cl)cc1Cl | 94.8 nM | 302 nM | 83 nM | 223 nM | 143 nM | 284 nM | 125 nM | 255 nM | 139 nM | 290 nM | 109 nM | 321 nM | 149 nM | 297 nM | 128 nM | 259 nM | 270 nM | 131 nM | 279 nM | 138 nM
Oc1[nH]c2ccccc2c1N=Nc1ccccn1 |  | > 100000 nM |  | 90700 nM |  | > 100000 nM |  | > 100000 nM |  | > 100000 nM |  | > 100000 nM |  | 78800 nM |  | > 100000 nM | > 100000 nM |  | > 100000 nM | 
C#CCOc1cccc(-c2ncnc3cc(NC(=O)CCl)ccc23)c1 | 2310 nM | 7640 nM | 61.2 nM | 1920 nM | 660 nM | 2640 nM | 76.4 nM | 1750 nM | 993 nM | 2920 nM | 886 nM | 3140 nM | 149 nM | 1710 nM | 617 nM | 2070 nM | 2190 nM | 22.1 nM | 1510 nM | 684 nM
Cc1cc(S(=O)(=O)Nc2nc3cscc3c(=O)n2Cc2ccccc2)c(S)cc1Cl | 23800 nM | > 100000 nM | 64900 nM | > 100000 nM | 61300 nM | > 100000 nM | 39100 nM | > 100000 nM | 44400 nM | > 100000 nM | 51500 nM | > 100000 nM | 81600 nM | > 100000 nM | 32200 nM | > 100000 nM | > 100000 nM | 26600 nM | > 100000 nM | 21400 nM
COC(=O)CCc1c[nH]c2ccc(N(CCCl)CCCl)cc12 | 21800 nM | > 77700 nM | 6450 nM | > 57700 nM | 1730 nM | 11500 nM | 572 nM | 22900 nM | 8980 nM | 25900 nM | 1250 nM | 39700 nM | 1790 nM | 6020 nM | 8050 nM | 49600 nM | 14800 nM | 3410 nM | 37000 nM | 2390 nM
Cc1ccc(-c2csc(/N=C3\C(=O)Nc4ccccc43)n2)cc1 | 1520 nM | 5860 nM | 1530 nM | 4550 nM | 1320 nM | 2790 nM | 1010 nM | 3110 nM | 1380 nM | 2870 nM | 1460 nM | 2980 nM | 1510 nM | 3490 nM | 1640 nM | 4890 nM | 3020 nM | 1620 nM | 3660 nM | 1630 nM
FC(F)c1nc2ccccc2n1-c1nc(N2CCOCC2)nc(N2CCOCC2)n1 | 445 nM | 4880 nM | 62.1 nM and 165 nM | 369 nM and 593 nM | 566 nM and 464 nM |  | 136 nM and 129 nM | > 62700 nM | 397 nM and 429 nM |  | 492 nM and 617 nM |  | 222 nM and 295 nM | 2690 nM | 204 nM and 281 nM | 3440 nM and 5670 nM | 2110 nM and 2370 nM | 573 nM and 1160 nM | > 100000 nM | 453 nM and 338 nM
COc1ccc(-c2cc(=O)c3ccc(C)nc3[nH]2)cc1 |  | > 100000 nM |  | > 100000 nM |  | > 100000 nM |  | > 100000 nM | 42700 nM | > 100000 nM |  | > 100000 nM |  | > 100000 nM | > 100000 nM | > 100000 nM | > 100000 nM |  | > 100000 nM | 48000 nM
FC(F)(F)c1nc2nc(Cl)c(Cl)nc2n1CCCN1CCOCC1 |  | 50500 nM |  | > 100000 nM |  | > 100000 nM |  | > 100000 nM |  | > 100000 nM |  | > 100000 nM |  | > 100000 nM |  | > 100000 nM | > 100000 nM |  | > 100000 nM | 
CC(C)(C)C(=O)c1c(C(F)(F)F)n([O-])c2ccccc2[n+]1=O | 757 nM | 2300 nM | 50.5 nM | 172 nM | 1450 nM | 4850 nM | 421 nM | 2030 nM | 606 nM | 1680 nM | 1170 nM | 2390 nM | 407 nM | 924 nM | 174 nM | 698 nM | 830 nM | 467 nM | 2000 nM | 240 nM
O=S(=O)(Nc1ccccc1Cl)c1ccc(-c2cnc(C3CC3)o2)cc1 | 4350 nM | > 89100 nM | 680 nM | > 100000 nM | 279 nM | > 100000 nM | 284 nM | > 100000 nM | 55.2 nM | 388 nM | 1780 nM | > 100000 nM | 260 nM | 15600 nM | 303 nM | 15700 nM | 15900 nM | 312 nM | > 100000 nM | 453 nM
